For 1 molecule, Normal melting temperature results are on record in the NIST ThermoML archive (doi:10.1021/je1010054).

For the data set the following is noted: Crystal; visual observation.

Numbers after ± are expanded uncertainties.

Consider `O=C1C=CC(=O)N1c1cc(F)c(Br)c(F)c1` [1-(4-bromo-3,5-difluorophenyl)-1H-pyrrole-2,5-dione], for which the Normal melting temperature stood at 197.50 ± 0.53 °C.
